System: imiquimod-induced psoriasis
Test: Imiquimod-induced psoriasis (Th17 inflammation) model in mice, topical treatment once daily D7-D13: PASI, modified PASI, body weight, use of enrichment, TEWL
Format: in vivo
Design: key to Mean score use enrichment: 0 = no use of dental rolls to 4 = use of all 4; key to PASI Mean score values: sum of erythema, induration, peeling scores, each 0-3 (0 = none)
Details: imiquimod-induced mice
Experimental: Thirty-six (36) female Balb/c mice are weighed and randomly divided into 9 groups (n=4) according to body weight on D1. For mice of native group 1 and tolerance groups 8 and 9, no induction of psoriasis is performed between D1 and D13. Psoriasis is induced in groups 2 to 7 by once daily topical application for 13 days (from day 1 to day 13) of 65 mg of Aldara™ cream (5.0% imiquimod) onto the shaved and epilated back of mice. Before the first treatment, a second randomization of mice of the 6 imiquimod-induced psoriasis groups is performed according to the severity of psoriasis (PASI), and also the body weight of mice. Starting on day 7 and until day 13, 100 mg of test formulations […] and 65 mg of vehicle (groups 1 and […]) are topically administered once daily for 7 consecutive days onto the shaved back skin of mice. Several measurements are taken during treatment period from day 7 to day 14: psoriasis index (PASI), body weight, use of enrichment and mortality. At the end of treatment period, TEWL is assessed, and blood and skin samples are collected. Histological analysis of skin samples is used for microscopic scoring of psoriasis and the determination of the thickness of parakeratosis and epidermis and blood analysis is used for assessing the level of proinflammatory biomarkers (cytokines assays). The effect of treatment of psoriasis induced mice with BETi formulations at the four dose levels are compared with Dermoval® cream containing 0.05% clobetasol propionate (reference) and vehicle (positive control) and also with healthy mice treated with vehicle (negative control).
PASI scoring takes into account the following 3 parameters: the presence of erythema on the skin, induration of the skin (thickening) and peeling of the skin at the area of the induction of psoriasis.
The presence of erythema on the skin at the area of induction of psoriasis with the following scoring grid: • 0=no or no more erythema on the skin, • 1=weak erythema on the skin, • 2=moderate erythema on the skin, • 3=important erythema on the skin.
The presence of induration of the skin at the area of induction of psoriasis with the following scoring grid: • 0=no or no more induration of the skin, • 1=weak induration of the skin, • 2=moderate induration of the skin, • 3=important induration of the skin.
The presence of peeling of the skin at the area of induction of psoriasis with the following scoring grid: • 0=no or no more dryness/peeling of the skin, • 1=weak dryness/peeling of the skin, • 2=moderate dryness/peeling of the skin, • 3=important dryness/peeling of the skin.
The sum of the mean scores of these 3 parameters result in the mean PASI score.
One of the issues with a steroid is that it causes skin thinning and continues to have an effect on no longer inflamed skin and the model set up and measurements above are not designed to reflect this negative effect. Therefore, a modified PASI (mPASI) is calculated in the same the manner as mean PASI score but excludes the scoring for induration (thickening of the skin).
Mice are weighed three times during the week of D1 to D7, and then daily during the week of D7 to D13, as well as on the day D14 when they are sacrificed. It should be noted that a characteristic body weight loss of mice is observed after the start of the induction of psoriasis, mainly during the first days following it. The body weight loss can reach between 10 to 15%.
For the duration of the experiment, dental rolls are used as enrichment and placed in each cage and replaced twice. Between D1 and D7, the number of dental rolls used by animals are determined twice in the morning, and are determined daily during D7 to D14, at the time of PASI or the tolerance assessment. The use of dental rolls is scored from 0=no use of dental rolls to 4=use of the 4 dental rolls. In the case where only half of a dental roll is used, a score of 0.5 is assigned. […]

Cn1cc(-c2cccc(O)c2Oc2ccccc2)c2cc[nH]c2c1=O [BETi1]
PASI Mean score values (D 7): 8.00 | Modified PASI Mean score values (D 7, listed as BETI1 0.01%): 5.75 | Modified PASI Mean score values (D 7, listed as BETI1 0.1%): 5.75 | Modified PASI Mean score values (D 7, listed as BETI1 1.0%): 5.50 | Mean score use enrichment (D 7, listed as BETi 0.001%): 4.00 | Mean score use enrichment (D 7, listed as BETi 0.01%): 3.50 | Mean score use enrichment (D 7, listed as BETi 0.1%): 3.00 | Modified PASI Mean score values (D 7, listed as BETi1 0.001%): 5.50 | Mean score use enrichment (D 7, listed as BETi 1.0%): 2.00 | Mean score use enrichment (D 8-D 14, listed as BETi 0.001%): 3.17 | Mean score use enrichment (D 8-D 14, listed as BETi 0.01%): 3.58 | Mean score use enrichment (D 8-D 14, listed as BETi 0.1%): 3.75 | Mean score use enrichment (D 8-D 14, listed as BETi 1.0%): 3.58 | Modified PASI Mean score values (D 8, listed as BETI1 0.1%): 6.00 | PASI Mean score values (D 8, listed as BETI1 0.1%): 8.50 | Modified PASI Mean score values (D 8, listed as BETI1 1.0%): 6.25 | PASI Mean score values (D 8, listed as BETI1 1.0%): 9.00 | Mean score use enrichment (D 8, listed as BETi 0.001%): 4.00 | Mean score use enrichment (D 8, listed as BETi 0.01%): 4.00 | Mean score use enrichment (D 8, listed as BETi 0.1%): 3.25 | Modified PASI Mean score values (D 8, listed as BETi1 0.001%): 7.00 | PASI Mean score values (D 8, listed as BETi1 0.001%): 10.00 | Modified PASI Mean score values (D 8, listed as BETi1 0.01%): 5.50 | PASI Mean score values (D 8, listed as BETi1 0.01%): 8.25 | Mean score use enrichment (D 8, listed as BETi 1.0%): 2.25 | Modified PASI Mean score values (D 9, listed as BETI1 0.1%): 4.50 | PASI Mean score values (D 9, listed as BETI1 0.1%): 7.25 | Modified PASI Mean score values (D 9, listed as BETI1 1.0%): 5.75 | PASI Mean score values (D 9, listed as BETI1 1.0%): 8.50 | Mean score use enrichment (D 9, listed as BETi 0.001%): 1.00 | Mean score use enrichment (D 9, listed as BETi 0.01%): 2.25 | Mean score use enrichment (D 9, listed as BETi 0.1%): 2.75 | Modified PASI Mean score values (D 9, listed as BETi1 0.001%): 6.25 | PASI Mean score values (D 9, listed as BETi1 0.001%): 9.25 | Modified PASI Mean score values (D 9, listed as BETi1 0.01%): 4.00 | PASI Mean score values (D 9, listed as BETi1 0.01%): 6.75 | Mean score use enrichment (D 9, listed as BETi 1.0%): 2.00 | Modified PASI Mean score values (D 10, listed as BETI1 0.1%): 2.75 | PASI Mean score values (D 10, listed as BETI1 0.1%): 4.50 | Modified PASI Mean score values (D 10, listed as BETI1 1.0%): 4.75 | PASI Mean score values (D 10, listed as BETI1 1.0%): 7.25 | Mean score use enrichment (D 10, listed as BETi 0.001%): 2.25 | Mean score use enrichment (D 10, listed as BETi 0.01%): 3.25 | Mean score use enrichment (D 10, listed as BETi 0.1%): 3.75 | Modified PASI Mean score values (D 10, listed as BETi1 0.001%): 5.50 | PASI Mean score values (D 10, listed as BETi1 0.001%): 8.50 | Modified PASI Mean score values (D 10, listed as BETi1 0.01%): 3.50 | PASI Mean score values (D 10, listed as BETi1 0.01%): 6.00 | Mean score use enrichment (D 10, listed as BETi 1.0%): 3.00 | Modified PASI Mean score values (D 11, listed as BETI1 0.1%): 1.25 | PASI Mean score values (D 11, listed as BETI1 0.1%): 2.75 | Modified PASI Mean score values (D 11, listed as BETI1 1.0%): 3.50 | PASI Mean score values (D 11, listed as BETI1 1.0%): 5.50 | Mean score use enrichment (D 11, listed as BETi 0.001%): 3.75 | Mean score use enrichment (D 11, listed as BETi 0.01%): 4.00 | Mean score use enrichment (D 11, listed as BETi 0.1%): 4.00 | Modified PASI Mean score values (D 11, listed as BETi1 0.001%): 5.50 | PASI Mean score values (D 11, listed as BETi1 0.001%): 8.00 | Mean body weights (D 11, listed as BETi1 0.01%): 17.93 | Modified PASI Mean score values (D 11, listed as BETi1 0.01%): 2.75 | PASI Mean score values (D 11, listed as BETi1 0.01%): 5.00 | Mean score use enrichment (D 11, listed as BETi 1.0%): 3.50 | Modified PASI Mean score values (D 12, listed as BETI1 0.1%): 0.50 | PASI Mean score values (D 12, listed as BETI1 0.1%): 1.00 | Modified PASI Mean score values (D 12, listed as BETI1 1.0%): 4.25 | PASI Mean score values (D 12, listed as BETI1 1.0%): 7.25 | Mean score use enrichment (D 12, listed as BETi 0.001%): 4.00 | Mean score use enrichment (D 12, listed as BETi 0.01%): 4.00 | Mean score use enrichment (D 12, listed as BETi 0.1%): 4.00 | Modified PASI Mean score values (D 12, listed as BETi1 0.001%): 4.50 | PASI Mean score values (D 12, listed as BETi1 0.001%): 6.00 | Modified PASI Mean score values (D 12, listed as BETi1 0.01%): 1.00 | PASI Mean score values (D 12, listed as BETi1 0.01%): 2.25 | Mean score use enrichment (D 12, listed as BETi 1.0%): 2.25 | Modified PASI Mean score values (D 13, listed as BETI1 0.1%): 0.50 | PASI Mean score values (D 13, listed as BETI1 0.1%): 1.00 | Modified PASI Mean score values (D 13, listed as BETI1 1.0%): 3.25 | PASI Mean score values (D 13, listed as BETI1 1.0%): 5.25 | Mean score use enrichment (D 13, listed as BETi 0.001%): 4.00 | Mean score use enrichment (D 13, listed as BETi 0.01%): 4.00 | Mean score use enrichment (D 13, listed as BETi 0.1%): 4.00 | Modified PASI Mean score values (D 13, listed as BETi1 0.001%): 4.00 | PASI Mean score values (D 13, listed as BETi1 0.001%): 5.50 | Modified PASI Mean score values (D 13, listed as BETi1 0.01%): 1.75 | PASI Mean score values (D 13, listed as BETi1 0.01%): 2.75 | Mean score use enrichment (D 13, listed as BETi 1.0%): 2.75 | Mean score use enrichment (D 14): 4.00 | Mean TEWL score values (D14, Lower back, listed as BETi1 1.0%): 30.63 g/h/m2 | Mean TEWL score values (D14, Lower back, listed as BETi10.001%): 42.11 g/h/m2 | Mean TEWL score values (D14, Lower back, listed as BETi10.01%): 57.25 g/h/m2 | Mean TEWL score values (D14, Lower back, listed as BETi10.1%): 39.27 g/h/m2 | Mean TEWL score values (D14, Mean, listed as BETi1 1.0%): 38.60 g/h/m2 | Mean TEWL score values (D14, Mean, listed as BETi10.001%): 40.35 g/h/m2 | Mean TEWL score values (D14, Mean, listed as BETi10.01%): 39.55 g/h/m2 | Mean TEWL score values (D14, Mean, listed as BETi10.1%): 27.14 g/h/m2 | Mean TEWL score values (D14, Mid back, listed as BETi1 1.0%): 40.80 g/h/m2 | Mean TEWL score values (D14, Mid back, listed as BETi10.001%): 41.26 g/h/m2 | Mean TEWL score values (D14, Mid back, listed as BETi10.01%): 34.53 g/h/m2 | Mean TEWL score values (D14, Mid back, listed as BETi10.1%): 24.04 g/h/m2 | Mean TEWL score values (D14, Upper back, listed as BETi1 1.0%): 44.36 g/h/m2 | Mean TEWL score values (D14, Upper back, listed as BETi10.001%): 37.67 g/h/m2 | Mean TEWL score values (D14, Upper back, listed as BETi10.01%): 26.87 g/h/m2 | Mean TEWL score values (D14, Upper back, listed as BETi10.1%): 18.11 g/h/m2 | Modified PASI Mean score values (D 14, listed as BETI1 0.1%): 0.50 | PASI Mean score values (D 14, listed as BETI1 0.1%): 1.25 | Modified PASI Mean score values (D 14, listed as BETI1 1.0%): 3.50 | PASI Mean score values (D 14, listed as BETI1 1.0%): 5.00 | Modified PASI Mean score values (D 14, listed as BETi1 0.001%): 3.75 | PASI Mean score values (D 14, listed as BETi1 0.001%): 5.50 | Modified PASI Mean score values (D 14, listed as BETi1 0.01%): 1.50 | PASI Mean score values (D 14, listed as BETi1 0.01%): 2.25 | clinical signs (end of treatment): substantial resolution of clinical signs | dermal tolerance (topical 7 days): no evidence of dermal tolerance issues | reduction in mPASI score (composite inflammation severity score) relative to vehicle control group (treatment Day 7): 94% | Absolute Body Weight Change from day 1 to day 14, D14 − D1, individual mouse (listed as BETi1 -0.001%): 1.58

Reference: patent publication US20250339409A1, “USES OF PAN BET INHIBITORS” (VYNE THERAPEUTICS INC., priority 2021, published 2025)
